# Assay results reported in patent US12714105B2, “Herbicidal mixtures and compositions and methods of use” (priority 2020, dated 2026).
# Assays:
# Format in all cases: in vivo
# Large Crabgrass [1] = experiment: Pre-emergent control of Large Crabgrass in Kentucky bluegrass turf (field trial)
# Description: A trial of formulations of the present invention (dithiopyr, isoxaben, MCPP, 2,4-D, and dicamba) was carried out and is shown in Table 2, below. The trial was initiated on Mar. 12, 2019 on Kentucky bluegrass. The turf was maintained at a height of 2½ inches, watered (twice weekly to ½ inch) and fertilized at local recommendations (0.5 lbs. once June 15th). Pre-emergent control of Large Crabgrass was evaluated as a percentage of the area in the test plots (1 xl meter and 3 replicates).
# Large Crabgrass [2] = experiment: Pre-emergent control of Large Crabgrass in Tall Fescue turf (field trial)
# Description: A trial of formulations of the present invention (dithiopyr, isoxaben, MCPP, 2,4-D, and dicamba; e.g., dithiopyr and SLWC) was carried out and is shown in Table 3, below. The trial was initiated on Mar. 12, 2019 on Tall Fescue. The turf was maintained at the height of 2½ inches and watered (twice weekly to ½ inch). Pre-emergent control of Large Crabgrass was evaluated as a percentage of the area in the test plots (1 xl meter and 3 replicates).
# [3] = tested on: Broadleaf weeds (dandelions, Oxalis, plantain and white clover); experiment: Pre-emergent control of Broadleaf weeds in Tall Fescue (field trial); conditions: for Percent Amount of Broadleaf weeds present in Test plots: Percent of SLWC AI's 0, Isoxaben Rate 1144 g ai/ha
# Description: A trial of the formulation of the present invention (dithiopyr, isoxaben, MCPP, 2,4-D, and dicamba, e.g., dithiopyr and SLWC) was carried out and is shown in Table 4, below. The trial was initiated on Mar. 12, 2019 on Tall Fescue. The turf was maintained at the height of 2½ inches and watered (twice weekly to ½ inch). Pre-emergent control of Broadleaf weeds (dandelions, Oxalis, plantain and white clover) was evaluated as a percentage of the area in the test plots (1×1 meter and 3 replicates).
# [4] = tested on: Broadleaf weeds (dandelions, Oxalis, and white clover); experiment: Pre-emergent control of Broadleaf weeds in Kentucky bluegrass (field trial); conditions: for Percent Amount of Broadleaf weeds present in Test plots: Percent of SLWC AI's 0, Isoxaben Rate 1130 g ai/ha
# Description: A trial of formulations of the present invention (dithiopyr, isoxaben, MCPP, 2,4-D, and dicamba, e.g., dithiopyr and SLWC) was carried out and is shown in Table 5, below. The trial was initiated on Mar. 12, 2019 on Kentucky bluegrass. The turf was maintained at a height if 2½ inches and watered (twice weekly to ½ inch). Pre-emergent control of Broadleaf weeds (dandelions, Oxalis, and white clover) was evaluated as a percentage of the area in the test plots (1×1 meter and 3 replicates).
# [5] = tested on: broadleaf weeds (Oxalis, Parsley-Preriot and white clover); experiment: Pre-emergent control of broadleaf weeds in Bermuda grass (field trial); conditions: for Percent Amount of Broadleaf weeds present in Test plots: Percent of SLWC AI's 0, Isoxaben Rate 1144 g ai/ha
# Description: A trial of formulations of the present invention (dithiopyr, isoxaben, MCPP, 2,4-D, and dicamba, e.g., dithiopyr and SLWC) was carried out and is shown in Table 6, below. The trial was initiated on Mar. 12, 2019 on Bermuda grass. The turf was maintained at a height of 1½ inches and watered (weekly to ½ inch). Pre-emergent control of broadleaf weeds (Oxalis, Parsley-Preriot and white clover) were evaluated as a percentage of the area in the test plots (1×1 meter and 3 replicates).
# [6] = 69 DA-A, dithiopyr only, Dithiopyr Rate 280 g ai/ha
# [7] = 83 DA-A, dithiopyr only, Dithiopyr Rate 280 g ai/ha
# [8] = 111 DA-A, dithiopyr only, Dithiopyr Rate 280 g ai/ha
# [9] = 125 DA-A, dithiopyr only, Dithiopyr Rate 280 g ai/ha
# [10] = 139 DA-A, dithiopyr only, Dithiopyr Rate 280 g ai/ha
# [11] = 161 DA-A, dithiopyr only, Dithiopyr Rate 280 g ai/ha
# [12] = 191 DA-A, dithiopyr only, Dithiopyr Rate 280 g ai/ha
smiles,measurement,setting,value
"CSC(=O)c1c(C(F)F)nc(C(F)(F)F)c(C(=O)SC)c1CC(C)C [Dithiopyr (Dimension), Dimethyl 2-(difluoromethyl)-4-(2-methylpropyl)-6-(trifluoromethyl)pyridine-3,5-dicarbothioate]","Large Crabgrass, percentage of the area in the test plots",Large Crabgrass [1]; [6],0%
same,"Large Crabgrass, percentage of the area in the test plots",Large Crabgrass [1]; [7],0%
same,"Large Crabgrass, percentage of the area in the test plots",Large Crabgrass [1]; [8],5.7%
same,"Large Crabgrass, percentage of the area in the test plots",Large Crabgrass [1]; [9],5%
same,"Large Crabgrass, percentage of the area in the test plots",Large Crabgrass [1]; [10],16%
same,"Large Crabgrass, percentage of the area in the test plots",Large Crabgrass [1]; [11],26.7%
same,"Large Crabgrass, percentage of the area in the test plots",Large Crabgrass [1]; [12],40%
same,effect of the addition of Dithiopyr to SLWC on the pre-emergent control of Large Crabgrass,Large Crabgrass [1]; in words,did not affect
same,"Large Crabgrass, percentage of the area in the test plots",Large Crabgrass [2]; [6],0%
same,"Large Crabgrass, percentage of the area in the test plots",Large Crabgrass [2]; [7],0%
same,"Large Crabgrass, percentage of the area in the test plots",Large Crabgrass [2]; [8],0.7%
same,"Large Crabgrass, percentage of the area in the test plots",Large Crabgrass [2]; [9],5%
same,"Large Crabgrass, percentage of the area in the test plots",Large Crabgrass [2]; [10],7.3%
same,"Large Crabgrass, percentage of the area in the test plots",Large Crabgrass [2]; [11],43.3%
same,"Large Crabgrass, percentage of the area in the test plots",Large Crabgrass [2]; [12],50%
same,effect of the addition of Dithiopyr to SLWC on the pre-emergent control of Large Crabgrass,Large Crabgrass [2]; in words,did not affect
same,effect of the addition of Dithiopyr to SLWC on the pre-emergent control of broadleaf weeds provided by Isoxaben,[3]; in words,did not affect
same,effect of the addition of Dithiopyr to SLWC on the pre-emergent control of broadleaf weeds provided by Isoxaben,[4]; in words,did not affect
same,effect of the addition of Dithiopyr to SLWC on the pre-emergent control of broadleaf weeds provided by Isoxaben,[5]; in words,did not affect
"CCC(C)(CC)c1cc(NC(=O)c2c(OC)cccc2OC)on1 [Isoxaben (Gallery 75 DF), Isoxaben]","Large Crabgrass, percentage of the area in the test plots","Large Crabgrass [1]; 69 DA-A, isoxaben only, LR (labelled rate)",0%
same,"Large Crabgrass, percentage of the area in the test plots","Large Crabgrass [1]; 83 DA-A, isoxaben only, LR (labelled rate)",0%
same,"Large Crabgrass, percentage of the area in the test plots","Large Crabgrass [1]; 111 DA-A, isoxaben only, LR (labelled rate)",6%
same,"Large Crabgrass, percentage of the area in the test plots","Large Crabgrass [1]; 125 DA-A, isoxaben only, LR (labelled rate)",15%
same,"Large Crabgrass, percentage of the area in the test plots","Large Crabgrass [1]; 139 DA-A, isoxaben only, LR (labelled rate)",30%
same,"Large Crabgrass, percentage of the area in the test plots","Large Crabgrass [1]; 161 DA-A, isoxaben only, LR (labelled rate)",28.3%
same,"Large Crabgrass, percentage of the area in the test plots","Large Crabgrass [1]; 191 DA-A, isoxaben only, LR (labelled rate)",73.3%
same,"Large Crabgrass, percentage of the area in the test plots","Large Crabgrass [2]; 69 DA-A, isoxaben only (rate not given)",0%
same,"Large Crabgrass, percentage of the area in the test plots","Large Crabgrass [2]; 83 DA-A, isoxaben only (rate not given)",0%
same,"Large Crabgrass, percentage of the area in the test plots","Large Crabgrass [2]; 111 DA-A, isoxaben only (rate not given)",7.7%
same,"Large Crabgrass, percentage of the area in the test plots","Large Crabgrass [2]; 125 DA-A, isoxaben only (rate not given)",16%
same,"Large Crabgrass, percentage of the area in the test plots","Large Crabgrass [2]; 139 DA-A, isoxaben only (rate not given)",21.7%
same,"Large Crabgrass, percentage of the area in the test plots","Large Crabgrass [2]; 161 DA-A, isoxaben only (rate not given)",58.3%
same,"Large Crabgrass, percentage of the area in the test plots","Large Crabgrass [2]; 191 DA-A, isoxaben only (rate not given)",63.3%
same,Percent Amount of Broadleaf weeds present in Test plots,[3]; 6 DA-A,3.3%
same,Percent Amount of Broadleaf weeds present in Test plots,[3]; 29 DA-A,2.7%
same,Percent Amount of Broadleaf weeds present in Test plots,[3]; 55 DA-A,2%
same,Percent Amount of Broadleaf weeds present in Test plots,[3]; 83 DA-A,8.3%
same,Percent Amount of Broadleaf weeds present in Test plots,[3]; 111 DA-A,2.7%
same,Percent Amount of Broadleaf weeds present in Test plots,[3]; 125 DA-A,0.7%
same,Percent Amount of Broadleaf weeds present in Test plots,[3]; 139 DA-A,4%
same,Percent Amount of Broadleaf weeds present in Test plots,[3]; 161 DA-A,0%
same,Percent Amount of Broadleaf weeds present in Test plots,[4]; 6 DA-A,4.3%
same,Percent Amount of Broadleaf weeds present in Test plots,[4]; 29 DA-A,5%
same,Percent Amount of Broadleaf weeds present in Test plots,[4]; 55 DA-A,14%
same,Percent Amount of Broadleaf weeds present in Test plots,[4]; 83 DA-A,9.7%
same,Percent Amount of Broadleaf weeds present in Test plots,[4]; 111 DA-A,17.3%
same,Percent Amount of Broadleaf weeds present in Test plots,[4]; 125 DA-A,6.3%
same,Percent Amount of Broadleaf weeds present in Test plots,[4]; 139 DA-A,7.7%
same,Percent Amount of Broadleaf weeds present in Test plots,[4]; 161 DA-A,1.7%
same,Percent Amount of Broadleaf weeds present in Test plots,[5]; 6 DA-A,6.3%
same,Percent Amount of Broadleaf weeds present in Test plots,[5]; 29 DA-A,8.3%
same,Percent Amount of Broadleaf weeds present in Test plots,[5]; 55 DA-A,11%
same,Percent Amount of Broadleaf weeds present in Test plots,[5]; 83 DA-A,3.3%
same,Percent Amount of Broadleaf weeds present in Test plots,[5]; 111 DA-A,3%
same,Percent Amount of Broadleaf weeds present in Test plots,[5]; 125 DA-A,0%
same,Percent Amount of Broadleaf weeds present in Test plots,[5]; 139 DA-A,0.7%
same,Percent Amount of Broadleaf weeds present in Test plots,[5]; 161 DA-A,0.3%
